The values below come from patent US11613515B2, “Neuro-attenuating ketamine and norketamine compounds, derivatives thereof, and methods” (Amorsa Therapeutics, Inc., priority 2014, dated 2023).

The structures appear in SMILES notation. Counter-ions that a name gives are not always drawn.

The conditions of data set [1]: estimated, background; cited from earlier work.
Data set [2] relates to NMDA receptor. Nature of the data set: Patch clamp electrophysiological functional response, NMDA receptor inhibition. Format: cell-based. The conditions noted are these: cultural hippocampal rat neurons. For orientation: Patch clamp records ionic current or voltage across a cell membrane.
For data set [3] the following is noted: fraction of ketamine activity; cited from earlier work.
The nature of data set [4]: Metabolic stability in rat liver microsomes. The conditions noted are these: NADPH regenerating system, 0 to 60 min. (In general: Liver microsomes are vesicles of endoplasmic reticulum, rich in cytochrome P450 enzymes.)
A short description of data set [5]: Pharmacokinetics of deuterated norketamines in rats (tail vein injection). The conditions noted are these: 0.8 mg/kg, injection into the tail vein.
Description: Pharmacokinetics of the deuterated norketamines is studied in rats. […] The terminal half-lives are calculated by fitting the data points using a WinNonLin software package.
The conditions of data set [6]: cited from earlier work.

`CNC1(c2ccccc2Cl)CCCCC1=O` (racemic) [ketamine, (R,S)-2-(2-chlorophenyl)-2-(methylamino) cyclohexanone]: the elimination half-life in data set [1] is 2 to 3 h. Moreover, in data set [2], inhibition was half-maximal at 2.2 µM (IC50).

Turning to `NC1(c2ccccc2Cl)CCCCC1=O` (racemic) [norketamine, (R,S)-2-(2-chlorophenyl)-2-(amino) cyclohexanone], the “activity as compared with ketamine” value in data set [3] is given as “roughly one third”. In data set [2], the midpoint of inhibition, the IC50, lay at 14.7 µM.

On to `[2H]C1([2H])CCCC(N)(c2ccccc2Cl)C1=O` (centres unmarked) [compound 11], for which it took 25.9 µM to reach half-maximal inhibition in data set [2] (IC50). For the same compound, the “increase in half-life compared to non-deuterated norketamine” value in data set [4] is “about 80%”. In addition, in data set [5], the “increase of terminal half-life vs norketamine” value is ~40%.

Consider `CNC1(c2ccccc2Cl)CCCCC1=O` (centres unmarked) [ketamine hydrochloride], for which, in data set [6], the solubility in water result was “about 200 mg/ml”.

Broadly, the IC50 is the midpoint of a concentration-inhibition curve. The low end stands for greater potency in that assay, the high end for weaker potency in that assay.
